Patent US10322098B2, “Composition for use in the treatment of intervertebral disc-related pain” (STAYBLE THERAPEUTICS AB, priority 2014, dated 2019)

How the values were obtained:
[1] = system: disc space of the L3-4 intervertebral disc; assay: Dimension of the disc space after local injection into the nucleus pulposus in a pig; assay type: in vivo; conditions: injected L3-4 disc compared with non-injected L2-3 and L4-5; FIG. 7
Description: 110. performing a cross-section of the discs and measuring the length (anterio-posterior direction) and the width (bilateral direction) of the disc space. Two pigs were anesthetized and placed on their right side. Access to the L4-5 intervertebral disc was obtained through a lateral incision between the lowest rib and the iliac crest on the left side of each pig. Thereafter, the L3-4 intervertebral disc was incised with a scalpel. […] The composition was injected in a single step at a single occasion. The intervertebral discs (L2-3, L3-4, L4-5) were cross-sectioned and the length of the disc space (anterio-posterior direction) and the width (bilateral direction) of the disc space were measured by calipers. In FIGS. 5 and 6, an intervertebral disc is schematically shown in cross-section. The intervertebral disc comprises the annulus fibrosus 10, and a disc space defined by the annulus fibrosus and comprising the nucleus pulposus 11.

[2] = Tolerability of intradiscal injection in pigs (behaviour, injection site by the naked eye); assay type: in vivo, pig; conditions: two pigs
Description: Two pigs were anesthetized and placed on their right side. Access to the L4-5 intervertebral disc was obtained through a lateral incision between the lowest rib and the iliac crest on the left side of each pig. Thereafter, the L3-4 intervertebral disc was incised with a scalpel.
The composition was injected in a single step at a single occasion.
At harvest, the pigs were killed.
The injection site was observed by the naked eye. […] The segment of the vertebral column extending from the lumbar vertebra L2 to the sacral vertebra S1 was removed. The facet joints were removed, thus allowing full flexibility of the discs with no restraints from other structures.

Compound: CC(O)C(=O)O (stereo not drawn) [lactic acid]
- Observation of the cross-sectioned disc space by the naked eye [1]: newly formed connective tissue in the disc space
- Adverse reaction such as decreased mobility or vocalization ([2]; 0.2 mL of 1.34 mol/L into L3-4 nucleus pulposus, period of seven days until harvest): no adverse reaction
- Adverse reaction at the injection site, such as bleedings, inflammation or necrosis ([2]; observed by the naked eye at harvest, seven days): No adverse reaction
